By melting point is commonly meant the temperature of the solid-liquid transition.

Take `Cc1ccnc2c1C(=NNC(=N)NO)CC(c1cc(Cl)sc1Cl)C2.Cl` (stereo not shown): the melting point was 196 to 197 °C (dec.).
For `Cc1ccnc2c1C(=NNC(=N)NO)CC(c1ccccc1Cl)C2.Cl` (stereo not shown), the melting point fell in the range of 185 to 187 °C.
In the case of `Cl.N=C(N)NN=C1CC(c2ccccc2)Cc2c1ccn2C(=O)c1ccccc1` (stereo not shown) it was 168 °C (dec.).
With `Cc1ccnc2c1C(=NNC(=N)N)CC(c1nccs1)C2.Cl` (stereo not shown), the melting point is 282 °C (dec.).
Take `Cc1ccnc2c1C(=NNC(=N)N)CC(c1sc(Cl)cc1Cl)C2.Cl` (stereo not shown): the melting point lay within 184 to 187 °C.
In the case of `Cc1ccnc2c1C(=NNC(=N)N)CC(c1cc(Br)sc1Br)C2.Cl` (stereo not shown) it was 272 to 273 °C.
`CS(=O)(=O)O.N=C(N)NN=C1CC(c2ccccc2Cl)Cc2nncc(C(F)(F)F)c21` (stereo not shown): the melting point fell in the range of 207 to 208 °C.
In the case of `Cc1cc(=O)n(C)c2c1C(=NNC(=N)N)CC(c1ccsc1)C2.Cl` (stereo not shown) it was 156 to 157 °C; in that of `Cc1cc(=O)[nH]c2c1C(=NNC(=N)N)CC(c1ccccc1Cl)C2.Cl` (stereo not shown), no less than 300 °C; in that of `Cc1c2c(nn1-c1ccccc1)CC(c1ccccc1Cl)CC2=NNC(=N)N.Cl` (stereo not shown), 192 to 194 °C.
In the case of `Cc1ccc(F)cc1C1CC(=NNC(=N)N)c2c(C)ccnc2C1.Cl` (stereo not shown) it was 202 to 205 °C; in that of `COc1ccc(F)cc1C1CC(=NNC(=N)N)c2c(C)ccnc2C1.Cl` (stereo not shown), no less than 300 °C.
For `Cc1n[nH]c2c1C(=NNC(=N)N)CC(c1cc(Cl)ccc1Cl)C2.Cl` (stereo not shown), the melting point is 287 °C (dec.).
In the case of `Cc1ccccc1C1CC(=NNC(=N)N)c2c(C)n[nH]c2C1.Cl` (stereo not shown) it was 211 °C (dec.); in that of `Cc1n[nH]c2c1C(=NNC(=N)N)CC(c1ccccc1O)C2.Cl` (stereo not shown), 168 °C (dec.).
In the case of `Cc1ccc(C2CC(=NNC(=N)N)c3c(C)coc3C2)cc1.Cl` (stereo not shown) it was 260 °C (dec.); in that of `Cc1coc2c1C(=NNC(=N)N)CC(c1ccc(Br)cc1)C2.Cl` (stereo not shown), 235 °C (dec.).
On to `COc1ccc(C2CC(=NNC(=N)N)c3c(C)coc3C2)cc1.Cl` (stereo not shown), for which the melting point is 182 °C (dec.).
In the case of `Cc1coc2c1/C(=N/NC(=N)N)CC(c1ccccc1C(F)(F)F)C2.Cl` (stereo not shown) it was 275 °C (dec.); in that of `Cc1coc2c1C(=NNC(=N)N)CC(c1ccc(F)cc1F)C2.Cl` (stereo not shown), 278 °C (dec.).
Regarding `Cc1coc2c1/C(=N/NC(=N)N)CC(c1cccc(Cl)c1Cl)C2.Cl` (stereo not shown), the melting point was 286 °C (dec.).
In the case of `Cc1coc2c1/C(=N/NC(=N)N)CC(c1ccccc1Br)C2.Cl` (stereo not shown) it was 296 °C (dec.); in that of `Cl.N=C(N)N/N=C1\CC(c2ccco2)Cc2occ(C(F)(F)F)c21` (stereo not shown), 282 °C (dec.).
In the case of `CCOC(=O)c1coc2c1/C(=N/NC(=N)N)CC(c1ccccc1Cl)C2.Cl` (stereo not shown) it was 277 °C (dec.); in that of `Cc1ccnc2c1C(=NNC(=N)N)CC(c1ccccc1Br)C2.Cl` (stereo not shown), 233 °C (dec.).
Regarding `Cc1ccnc2c1C(=NNC(=N)N)CC(c1ccco1)C2.Cl` (stereo not shown), the melting point was no less than 300 °C.
In the case of `Cc1cc(C)c2c(n1)CC(c1ccccn1)CC2=NNC(=N)N.Cl` (stereo not shown) it was 201 °C (dec.); in that of `Cc1ncnc2c1/C(=N/NC(=N)N)CC(c1ccccc1Cl)C2.Cl` (stereo not shown), 284 °C (dec.); in that of `CCCn1ccc2c1CC(c1ccccc1)CC2=NNC(=N)N.Cl` (stereo not shown), 155 °C (dec.).
In the case of `Cc1nc(C)c2c(n1)CC(c1ccccc1Cl)C/C2=N\NC(=N)N.Cl` (stereo not shown) it was 242 to 244 °C.
In the case of `Cc1ccnc2c1C(=NNC(=N)NO)CC(c1cccc(Cl)c1Cl)C2.Cl` (stereo not shown) it was 196 to 198 °C (dec.).
Consider `Cc1ccnc2c1C(=NNC(=N)NO)CC(c1ccco1)C2.Cl` (stereo not shown), for which the melting point is 196 to 198 °C (dec.).
Turning to `Cc1ccc(C2CC(=NNC(=N)NO)c3c(C)ccnc3C2)s1.Cl` (stereo not shown), the melting point is 210 to 212 °C (dec.).
In the case of `Cl.N=C(N)NN=C1CC(c2ccccc2)Cc2[nH]c(=O)ccc21` (stereo not shown) it was no less than 300 °C.

The values are drawn from patent US6350749B1, “Aminoguanidine hydrazone derivatives, process for producing the same and drugs thereof” (Takeda Chemical Industries, Ltd., priority 1998, dated 2002).
